Assays:
TLR2/1 = target: T1, TLR2/1 (Homo sapiens, UniProt O60603); assay: TLR2/1 (Pam3CSK4)-induced NF-κB/AP-1 SEAP reporter in HEK-Blue hTLR2 cells; format: cell-based; conditions: for TLR2-mediated NF-κB activation in primary screen, TLR2/1 (in words) / IC50: Pam3CSK4 10 ng/mL; for TLR2-mediated NF-κB activation in primary screen, TLR2/1 (in words): Figure 3A; for IC50: HEK-Blue hTLR2 cells, n=3, 95 % confidence interval in brackets; for Pam3CSK4-induced TLR2/1 response (remaining): compound at 50 μM, 1 h pre-incubation, Pam3CSK4 10 ng/mL 24 h
T1 construct: host or cells: HEK-Blue hTLR2 cells
T1 sequence (O60603 21-784): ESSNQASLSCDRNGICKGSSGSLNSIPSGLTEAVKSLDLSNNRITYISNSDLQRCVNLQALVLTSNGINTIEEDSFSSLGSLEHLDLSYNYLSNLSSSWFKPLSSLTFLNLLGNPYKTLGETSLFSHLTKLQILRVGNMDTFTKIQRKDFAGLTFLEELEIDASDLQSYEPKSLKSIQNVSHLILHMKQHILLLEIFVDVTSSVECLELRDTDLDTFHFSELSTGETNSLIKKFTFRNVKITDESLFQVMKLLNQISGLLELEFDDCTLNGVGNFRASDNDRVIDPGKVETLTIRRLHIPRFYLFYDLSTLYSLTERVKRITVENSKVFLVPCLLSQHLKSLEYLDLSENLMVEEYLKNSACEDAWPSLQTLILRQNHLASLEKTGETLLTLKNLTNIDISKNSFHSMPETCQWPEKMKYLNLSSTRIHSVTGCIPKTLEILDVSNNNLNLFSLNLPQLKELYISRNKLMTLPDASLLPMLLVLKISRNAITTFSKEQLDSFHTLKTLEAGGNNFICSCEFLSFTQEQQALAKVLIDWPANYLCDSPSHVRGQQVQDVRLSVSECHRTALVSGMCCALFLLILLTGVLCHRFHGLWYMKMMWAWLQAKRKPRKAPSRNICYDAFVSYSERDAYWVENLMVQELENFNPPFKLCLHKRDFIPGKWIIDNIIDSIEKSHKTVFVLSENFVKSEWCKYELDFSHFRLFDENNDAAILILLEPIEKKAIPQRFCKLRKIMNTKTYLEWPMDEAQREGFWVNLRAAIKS
Procedure: (§1) Figure 3 Inhibition of TLR2‐dependent NF‐κB activation and IL‐8 secretion. A) HEK‐Blue hTLR2 cells were pre‐incubated with CU‐CPT22 or compounds 1–6 and 9–11 for 1 h and then stimulated additionally with TLR2/1 agonist Pam3CSK4 (10 ng/mL) or TLR2/6 agonist Pam2CSK4 (1 ng/mL) for 24 h. B) HEK‐Blue hTLR2 cells were pre‐incubated with increasing concentrations of 4, 6, 9, 10 and then stimulated additionally with Pam3CSK4 or Pam2CSK4 for 24 h. Supernatants were tested for TLR2‐mediated NF‐κB/AP‐1 activity by quantification of SEAP release (OD640). C) THP‐1 macrophages were incubated with CU‐CPT22 (25 μM) or compound 6 for 1 h and afterwards stimulated with Pam3CSK4 (10 ng/mL), Pam2CSK4 (1ng/mL), LPS (10 ng/mL), flagellin (1 μg/mL), CL075 (8 μM) or ODN2006 (5 μM) for 24 h. Supernatants were analyzed for IL‐8 secretion by ELISA. Mean+SD or ±SD (n=3).
(§2) Cell culture: Human embryonic kidney (HEK)‐Blue hTLR2 cells (InvivoGen, Touluse, France) were used from passage 5 to 20. Stimulation of the cells with TLR2 agonists leads to production and secretion of NF‐κB‐inducible embryonic alkaline phosphatase (SEAP). The enzyme transforms the substrate QUANTI‐Blue (InvivoGen) into a blue dye that was detected by optical density (OD) at 640 nm as previously described.11a, 12 THP‐1 cells (DSMZ, Braunschweig, Germany) from passage 10 to 15 were cultured as previously reported.13 For the generation of THP‐1 macrophages, THP‐1 monocytes were first incubated with 25 ng/mL Phorbol 12‐myristate 13‐acetate (PMA, Sigma‐Aldrich) for 48 h and afterwards rested for 24 h. The cell lines were cultured at 37 °C in a humidified atmosphere of 5 % CO2 and 95 % air and were regularly tested negative for mycoplasma contamination (VenorGeM Classic Mycoplasma PCR detection kit, Minerva Biolabs, Berlin, Germany).
(§3) Cell stimulation: HEK‐Blue hTLR2 cells (4×10^4 cells/well) and THP‐1 macrophages (2×10^5 cells/well) were cultured in 96‐well plates and 24‐well plates (TPP, Trasadingen, Switzerland). After cells were washed with phosphate‐buffered saline (PBS, Sigma‐Aldrich), cell stimulation was done in OptiMEM (ThermoFisher Scientific). The tested compounds and CU‐CPT22 (50 mM) were dissolved in DMSO. Final DMSO concentrations in cell culture were below 0.2 % (v/v). […] For co‐stimulation of TLR2 agonists and tested modulators, cells were preincubated with the compounds or CU‐CPT22 for 1 h and afterwards stimulated with the agonists.
(§4) Statistical analysis: Data of the bar charts are shown as mean+SD. Potency (IC50) data are presented as mean with the confidence interval (95 %). Statistical analysis was done by using GraphPad Prism 6.0 (GraphPad software, San Diego, USA). Nonlinear regression was used to plot and analyze concentration‐response curves and to obtain IC50 values.

TLR2/6 = target: T2, TLR2/6 (Homo sapiens, UniProt O60603); assay: TLR2/6 (Pam2CSK4)-induced NF-κB/AP-1 SEAP reporter in HEK-Blue hTLR2 cells; format: cell-based; conditions: for TLR2-mediated NF-κB activation in primary screen, TLR2/6 (in words) / IC50: Pam2CSK4 1 ng/mL; for TLR2-mediated NF-κB activation in primary screen, TLR2/6 (in words): Figure 3A; for IC50: HEK-Blue hTLR2 cells, n=3, 95 % confidence interval in brackets; for Pam2CSK4-induced TLR2/6 response (remaining): compound at 50 μM, 1 h pre-incubation, Pam2CSK4 1 ng/mL 24 h
T2 construct: host or cells: HEK-Blue hTLR2 cells
T2 sequence (O60603 21-784): as above
Procedure: as §1, §2, §3, §4

HEK-Blue hTLR2 cells = assay: Cell viability by MTT assay; format: cell-based, human; conditions: 24 h
Procedure: Cell viability: Cell viability was assessed by the MTT assay in HEK Blue hTLR2 cells as previously described.14 10 % (v/v) DMSO (Carl Roth) served as control and the viability of untreated cells was defined as 100 %.
(§5) 1.1 Supplementary Figure 1: Agonistic activity and cell viability […]
(§6) up to 50 µM. (A) HEK-Blue hTLR2 cells were stimulated with Pam3CSK4 (10 ng/ml) or the compounds 1-9 for 24 h. SEAP production was detected by QUANTI-Blue as OD at 640 nm. (B) HEK-Blue hTLR2 cells were stimulated with DMSO (10% v/v) or the compounds for 24 h. Cell viability was determined by MTT assay and normalized to unstimulated cells (dashed line). Mean +SD (n=3).
(1 picture or pasted object on this page, not shown here)

[1] = Chemical stability toward oxidation; format: physicochemical; conditions: aerobic conditions; 7 and 8 on debenzylation of the protected intermediates
Excerpt: Aromatic ketone 5, in which the amide linker between two benzene rings is replaced by a ketomethylene unit, was obtained via the direct C‐acylation of resorcinol (1,3‐diphenol) with 3,4‐dimethoxy‐phenyl acetic acid using boron trifluoride diethyl etherate as the activating Lewis acid in 19 % yield. Compounds 1–6 were isolated with >95 % purity by column chromatography. Synthesis of the trihydroxy‐derivatives, ethyl 3‐(2,3,4‐trihydroxy‐benzamido)benzoate 7 and ethyl 3‐(3,4,5‐trihydroxy‐benzamido)benzoate 8 was attempted following the same strategy as in Scheme 2. […] 7 and 8 therefore could not be isolated and tested biologically.

TLR2 = target: T3, TLR2 (Homo sapiens, UniProt O60603); assay: Agonistic TLR2 activity, SEAP production in HEK-Blue hTLR2 cells; format: cell-based; conditions: compounds alone for 24 h, SEAP OD 640 nm
T3 construct: host or cells: HEK-Blue hTLR2 cells
T3 sequence (O60603 21-784): as above
Procedure: as §2, §5
as §6, with “(n=3). […]” for “(n=3).”

other TLR subtypes = assay: IL-8 secretion (ELISA) in THP-1 macrophages stimulated with agonists of other TLRs; format: cell-based, human; conditions: LPS, flagellin, CL075 or ODN2006 for 24 h
Procedure: as §1, with “C) THP‐1 macrophages were incubated with CU‐CPT22 (25 μM) or compound 6 for 1 h and afterwards stimulated with Pam3CSK4 (10 ng/mL), Pam2CSK4 (1ng/mL), LPS (10 ng/mL), flagellin (1 μg/mL), CL075 (8 μM) or ODN2006 (5 μM) for 24 h.” left out, “Mean+SD or ±SD (n=3).” left out
Cell culture: Human embryonic kidney (HEK)‐Blue hTLR2 cells (InvivoGen, Touluse, France) were used from passage 5 to 20. […] The enzyme transforms the substrate QUANTI‐Blue (InvivoGen) into a blue dye that was detected by optical density (OD) at 640 nm as previously described.11a, 12 THP‐1 cells (DSMZ, Braunschweig, Germany) from passage 10 to 15 were cultured as previously reported.13 For the generation of THP‐1 macrophages, THP‐1 monocytes were first incubated with 25 ng/mL Phorbol 12‐myristate 13‐acetate (PMA, Sigma‐Aldrich) for 48 h and afterwards rested for 24 h. […]
ELISA: Commercially available ELISA kits were used for detecting human IL‐8 levels in cell culture supernatants (ELISA‐Ready Set Go, Invitrogen by Thermo Fisher Scientific).

| Structure (SMILES) | IC50 (TLR2/1) | Pam3CSK4-induced TLR2/1 response (remaining) (TLR2/1) | IC50 (TLR2/6) | chemical stability / sensitivity to oxidation [1] | TLR2-mediated NF-κB activation in primary screen, TLR2/1 (in words) (TLR2/1) | TLR2-mediated NF-κB activation in primary screen, TLR2/6 (in words) (TLR2/6) | also measured |
| --- | --- | --- | --- | --- | --- | --- | --- |
| CCOC(=O)c1cccc(NC(=O)c2ccc(O)cc2O)c1 [Compound 1, Ethyl 3‐(2,4‐dihydroxy‐benzamido)benzoate] |  |  |  |  | Except for 1, all selected compounds decreased | Except for 1, all selected compounds decreased |  |
| CCOC(=O)c1cccc(NC(=O)Cc2ccc(OC)c(OC)c2)c1 [Compound 4, Ethyl 3‐(2‐(3,4‐dimethoxyphenyl)acetamido)benzoate] | 44.9 µM | less than 40% | 61.9 µM |  |  |  |  |
| CCOC(=O)c1cccc(NC(=O)c2cc(O)cc(O)c2)c1 [Compound 6, Ethyl 3‐(3,5‐dihydroxy‐benzamido)benzoate] | 15.4 µM | less than 40% | 13.6 µM | chemically stable | abrogated the TLR2 response of both heterodimers almost completely | abrogated the TLR2 response of both heterodimers almost completely | cytotoxic effects / cell viability (in words) (HEK-Blue hTLR2 cells): nontoxic; lowest concentration reducing cell viability (HEK-Blue hTLR2 cells): > 50 µM; agonistic TLR2 activity (TLR2): no agonistic activity; influence on other TLR subtypes (IL-8 secretion) (other TLR subtypes): no influence on other TLR subtypes |
| CCCc1cc(C(=O)Cc2ccc(C(=O)OCC)o2)c(O)cc1O [Compound 11] |  |  |  |  | abrogated the TLR2 response of both heterodimers almost completely | abrogated the TLR2 response of both heterodimers almost completely | cytotoxic effects / cell viability (in words) (HEK-Blue hTLR2 cells): cytotoxic; lowest concentration reducing cell viability (HEK-Blue hTLR2 cells): 50 µM |

Continued, in another order:

| IC50 (TLR2/1) | Pam3CSK4-induced TLR2/1 response (remaining) (TLR2/1) | IC50 (TLR2/6) | chemical stability / sensitivity to oxidation [1] | Structure (SMILES) | TLR2-mediated NF-κB activation in primary screen, TLR2/1 (in words) (TLR2/1) | TLR2-mediated NF-κB activation in primary screen, TLR2/6 (in words) (TLR2/6) | also measured |
| --- | --- | --- | --- | --- | --- | --- | --- |
|  |  |  | instantaneous decomposition | CCOC(=O)c1cccc(NC(=O)c2ccc(O)c(O)c2O)c1 [Compound 7, ethyl 3‐(2,3,4‐trihydroxy‐benzamido)benzoate] |  |  |  |
|  |  |  | instantaneous decomposition | CCOC(=O)c1cccc(NC(=O)c2cc(O)c(O)c(O)c2)c1 [Compound 8, ethyl 3‐(3,4,5‐trihydroxy‐benzamido)benzoate] |  |  |  |
| 42.4 µM | less than 40% | 42.9 µM |  | COC(=O)c1ccc(CC(=O)c2ccc(O)cc2O)o1 [Compound 9] |  |  | Pam2CSK4-induced TLR2/6 response (remaining) (TLR2/6): less than 50% |
| 44 µM | less than 40% | 40.7 µM |  | CCOC(=O)c1ccc(CC(=O)c2c(C)cc(O)cc2O)o1 [Compound 10] |  |  | Pam2CSK4-induced TLR2/6 response (remaining) (TLR2/6): less than 50% |

Source: paper PMC7496872 (Chemmedchem, 2020)
